In article PMC7020476, “New Insights into the Type II Toxins from the Sea Anemone Heteractis crispa” (Toxins, 2020):
“Also recorded” adds a separate entry of the source. Read-outs that look alike come from different tables or passages of the source. Bridges are numbered along the chain shown (N, C = ends). Roman numbers before positions name the chains, in order. Where no end group is shown, it is not given here.

Columns and labels:
mNaV1.6 = target: T1, mNaV1.6 (Mus musculus, UniProt Q9WTU3); experiment: Two-electrode voltage-clamp of NaV1.6 expressed in Xenopus laevis oocytes; assay type: cell-based; conditions: for EC50: amplitude of toxin-induced effect at 30 ms (I30ms), Hill fit, Xenopus oocytes, means ± sem, n ≥ 5, read-out: half-maximal effective concentration (EC50), NaV1.6
T1 construct: expressed in transfected cells; host or cells: Xenopus laevis oocytes injected with cRNA
Excerpt: (§1) For the expression of NaV channels (hNaV1.1, rNaV1.2, rNaV1.3, rNaV1.4, hNaV1.5, mNaV1.6, rNaV1.8, the invertebrate channels BgNaV1.1, VdNaV1, and the auxiliary subunits rβ1, hβ1, and TipE) in Xenopus oocytes, the linearized plasmids were transcribed using the T7 or SP6 mMessage-mMachine Transcription Kit (Thermo Fisher Scientific, Waltham, MA, USA). The harvesting of stage V–VI oocytes from anesthetized female X. laevis frogs was previously described with a protocol adjustment in which the frogs were anesthetized by placement in 0.1% tricaine (amino benzoic acid ethyl ester; Millipore Sigma, Burlington, MA, USA) solution. Oocytes were injected with 50 nL of cRNA at a concentration of 1 ng/nL using a microinjector (Drummond Scientific Company, Broomall, PA, USA). The oocytes were incubated in a solution containing (mM) the following: NaCl, 96; KCl, 2; CaCl2, 1.8; MgCl2, 2; and HEPES, 5 (pH 7.4). This solution was supplemented with 50 mg/L gentamicin sulfate.
(§2) Two-electrode voltage-clamp recordings were performed at room temperature (18–22 °C) using a GeneClamp 500 amplifier (Molecular Devices, San Jose, CA, USA) controlled by a pClamp data acquisition system (Axon Instruments, Union City, CA, USA). Whole-cell currents from oocytes were recorded 1–4 d after mRNA injection. Bath solution composition was (mM) as follows: NaCl, 96; KCl, 2; CaCl2, 1.8; MgCl2, 2; and HEPES, 5 (pH 7.4). Voltage and current electrodes were filled with 3 M KCl. The resistances of both electrodes were kept between 0.8 and 1.5 MΩ. The elicited currents were filtered at 1 kHz and sampled at 20 kHz by using a 4-pole low-pass Bessel filter. Leak subtraction was performed using a -P/4 protocol.
(§3) For the electrophysiological analysis of toxins, a number of protocols were applied from a holding potential of −90 mV with a start-to-start frequency of 0.2 Hz. Na^+ current traces were evoked by 100-ms depolarizations to Vmax (the voltage corresponding to maximal Na^+ current in control conditions). The current–voltage relationships were determined by 50-ms step depolarizations between −90 and 70 mV, using 5 mV increments. The Na^+ conductance (gNa) was calculated from the currents according to Ohm’s law: gNa = INa/(V − Vrev), where INa represents the Na^+ current peak amplitude at a given test potential V, and Vrev is the reversal potential. The values of gNa were plotted as a function of voltage and fitted using the Boltzmann function: gNa/gmax = [1 + (exp(Vg − V)/k)] −1, where gmax represents maximal gNa, Vg is the voltage corresponding to half-maximal conductance, and k is the slope factor. Toxin–induced effects on the steady–state inactivation were investigated by using a standard two-step protocol. […] I30ms/Ipeak was measured at the same test voltage after addition of the toxin. […]

mice [1] = experiment: Toxicity in mice; assay type: in vivo, adult male CD-1 mice; conditions: intraperitoneal, six animals per sample, 24 hours
Procedure: The care and use of animals were performed in an agreement with the requirements of local and international legislation as well as of the Directive 2010/63/EU for animal experiments.
Adult male CD-1 mice weighing 20–22 g were kept at room temperature with a 12-h light/dark cycle and with ad libitum access to food and water. Each animal was used only once and was euthanized in the CO2 chamber immediately after completion of the experiment. Animal procedures were approved by the Animal Care and Use Committee of the PIBOC FEB RAS.
The peptides (0.15–300 μg) were dissolved in 100 μL of sterile saline (0.9% NaCl) and injected intraperitoneally. Six animals were used per sample. To assess peptide toxicity, the maximum non-toxic dose was determined as an amount (mg) of the tested peptide per kg of the mouse weight, at which there was no observed toxic or adverse effect within 24 hours.

rNaV1.2 = target: T2, rNaV1.2 (Rattus norvegicus, UniProt P04775); experiment: Two-electrode voltage-clamp of NaV1.2 expressed in Xenopus laevis oocytes; assay type: cell-based; conditions: for EC50: read-out: half-maximal effective concentration (EC50), NaV1.2
T2 construct: expressed in transfected cells; host or cells: Xenopus laevis oocytes injected with cRNA
Excerpt: as §1, §2
as §3, with “protocol. In this protocol, 100 ms conditioning 5 mV step prepulses ranging from −90 to 70 mV were followed by a 50-ms test pulse to −30 or −10 mV. Data were normalized to the maximal Na^+ current amplitude, plotted against prepulse potential, and fitted by using the Boltzmann function: INa/Imax = {(1 − C)/(1 + exp[(V − Vh)/k)]} + C, where Imax is the maximal INa, Vh is the voltage corresponding to half-maximal inactivation, V is the test voltage, k is the slope factor, and C is a constant representing a non-inactivating persistent fraction (close to 0 in control).” for “protocol.”

[2] = test system: NaV channels (NaV1.1–NaV1.6, NaV1.8, BgNaV1, VdNaV1); experiment: Electrophysiological screening on nine NaV subtypes (overall statements); assay type: cell-based; conditions: for modulation of NaV channels (in words): 10 μM toxin, Xenopus oocytes; for phyla selectivity (in words): mammalian vs. insect/arachnid, 10 μM
Excerpt: as §1, §2, §3

BgNaV1 = BgNaV1 (Blattella germanica, UniProt O01306); experiment: Two-electrode voltage-clamp of BgNaV1 expressed in Xenopus laevis oocytes; assay type: cell-based, insect; conditions: for EC50: amplitude of toxin-induced effect at 30 ms (I30ms), Hill fit, Xenopus oocytes, means ± sem, n ≥ 5, read-out: half-maximal effective concentration (EC50), BgNaV1
Excerpt: as §1, §2, §3

rNaV1.3 = experiment: Two-electrode voltage-clamp of NaV1.3 expressed in Xenopus laevis oocytes; assay type: cell-based, rat; conditions: 10 μM toxin
Excerpt: as §1, with “Oocytes were injected with 50 nL of cRNA at a concentration of 1 ng/nL using a microinjector (Drummond Scientific Company, Broomall, PA, USA). The oocytes were incubated in a solution containing (mM) the following: NaCl, 96; KCl, 2; CaCl2, 1.8; MgCl2, 2; and HEPES, 5 (pH 7.4). This solution was supplemented with 50 mg/L gentamicin sulfate.” left out
Two-electrode voltage-clamp recordings were performed at room temperature (18–22 °C) using a GeneClamp 500 amplifier (Molecular Devices, San Jose, CA, USA) controlled by a pClamp data acquisition system (Axon Instruments, Union City, CA, USA). Whole-cell currents from oocytes were recorded 1–4 d after mRNA injection. […]
For the electrophysiological analysis of toxins, a number of protocols were applied from a holding potential of −90 mV with a start-to-start frequency of 0.2 Hz. […] The current–voltage relationships were determined by 50-ms step depolarizations between −90 and 70 mV, using 5 mV increments. […] I30ms/Ipeak was measured at the same test voltage after addition of the toxin. […]

[3] = Secondary structure content by CD spectroscopy; assay type: physicochemical; conditions: water, 20 °C; for Unordered / α-Helices αD / α-Helices αR / α-Helices αtot: CONTIN; for α-Helices αD: distorted; for α-Helices αR: regular; for α-Helices αtot: sum
Procedure: CD spectra were measured in the range from 320 to 190 nm with a Chirascan-plus spectropolarimeter (Applied Photophysics, Leatherhead, UK). The instrument was calibrated with 10-camphorsulfonic acid ammonium salt, and a ratio of 2:1 was found between the positive CD band at 290 nm and the negative CD band at 192 nm. The measurements were carried out in bidistilled water at 20 °C using 0.1- and 1-cm path length cells in amide and aromatic regions, respectively. In the amide region (190–240 nm) of the CD spectrum, molar ellipticity [θ]λ (deg cm^2 dmol^−1) was calculated as [θ]λ = θobs × MRW/10 × C × L, where θobs is the observed ellipticity in degrees, MRW is the mean amino acid residue weight of 110 Da, L is the path length (cm), and C is the protein concentration (g/mL). In the aromatic region (240–320 nm) of the CD spectrum, results were expressed as molar ellipticity (the average molecular masses of RpII, RTX-III, and RTX-VI are 5378, 5287, and 5240 Da, respectively). The secondary structure contents were determined according to the method of Provencher and Glöckner, using their CONTIN program.

mice [4] = conditions: cited from earlier work
Excerpt: The only difference observed within our electrophysiological experiments that may underlie this phenomenon is a different activity of both toxins on NaV1.2 and NaV1.3 subtypes (Figure 5, Table 2). Even though tetrodotoxin (TTX)-sensitive brain-type sodium channel isoforms NaV1.1–NaV1.3 and NaV1.6 are the main channels e ...

[5] = amplitude of toxin-induced effect at 30 ms (I30ms), Hill fit, Xenopus oocytes, means ± sem, n ≥ 5

T1 sequence (Q9WTU3 whole entry): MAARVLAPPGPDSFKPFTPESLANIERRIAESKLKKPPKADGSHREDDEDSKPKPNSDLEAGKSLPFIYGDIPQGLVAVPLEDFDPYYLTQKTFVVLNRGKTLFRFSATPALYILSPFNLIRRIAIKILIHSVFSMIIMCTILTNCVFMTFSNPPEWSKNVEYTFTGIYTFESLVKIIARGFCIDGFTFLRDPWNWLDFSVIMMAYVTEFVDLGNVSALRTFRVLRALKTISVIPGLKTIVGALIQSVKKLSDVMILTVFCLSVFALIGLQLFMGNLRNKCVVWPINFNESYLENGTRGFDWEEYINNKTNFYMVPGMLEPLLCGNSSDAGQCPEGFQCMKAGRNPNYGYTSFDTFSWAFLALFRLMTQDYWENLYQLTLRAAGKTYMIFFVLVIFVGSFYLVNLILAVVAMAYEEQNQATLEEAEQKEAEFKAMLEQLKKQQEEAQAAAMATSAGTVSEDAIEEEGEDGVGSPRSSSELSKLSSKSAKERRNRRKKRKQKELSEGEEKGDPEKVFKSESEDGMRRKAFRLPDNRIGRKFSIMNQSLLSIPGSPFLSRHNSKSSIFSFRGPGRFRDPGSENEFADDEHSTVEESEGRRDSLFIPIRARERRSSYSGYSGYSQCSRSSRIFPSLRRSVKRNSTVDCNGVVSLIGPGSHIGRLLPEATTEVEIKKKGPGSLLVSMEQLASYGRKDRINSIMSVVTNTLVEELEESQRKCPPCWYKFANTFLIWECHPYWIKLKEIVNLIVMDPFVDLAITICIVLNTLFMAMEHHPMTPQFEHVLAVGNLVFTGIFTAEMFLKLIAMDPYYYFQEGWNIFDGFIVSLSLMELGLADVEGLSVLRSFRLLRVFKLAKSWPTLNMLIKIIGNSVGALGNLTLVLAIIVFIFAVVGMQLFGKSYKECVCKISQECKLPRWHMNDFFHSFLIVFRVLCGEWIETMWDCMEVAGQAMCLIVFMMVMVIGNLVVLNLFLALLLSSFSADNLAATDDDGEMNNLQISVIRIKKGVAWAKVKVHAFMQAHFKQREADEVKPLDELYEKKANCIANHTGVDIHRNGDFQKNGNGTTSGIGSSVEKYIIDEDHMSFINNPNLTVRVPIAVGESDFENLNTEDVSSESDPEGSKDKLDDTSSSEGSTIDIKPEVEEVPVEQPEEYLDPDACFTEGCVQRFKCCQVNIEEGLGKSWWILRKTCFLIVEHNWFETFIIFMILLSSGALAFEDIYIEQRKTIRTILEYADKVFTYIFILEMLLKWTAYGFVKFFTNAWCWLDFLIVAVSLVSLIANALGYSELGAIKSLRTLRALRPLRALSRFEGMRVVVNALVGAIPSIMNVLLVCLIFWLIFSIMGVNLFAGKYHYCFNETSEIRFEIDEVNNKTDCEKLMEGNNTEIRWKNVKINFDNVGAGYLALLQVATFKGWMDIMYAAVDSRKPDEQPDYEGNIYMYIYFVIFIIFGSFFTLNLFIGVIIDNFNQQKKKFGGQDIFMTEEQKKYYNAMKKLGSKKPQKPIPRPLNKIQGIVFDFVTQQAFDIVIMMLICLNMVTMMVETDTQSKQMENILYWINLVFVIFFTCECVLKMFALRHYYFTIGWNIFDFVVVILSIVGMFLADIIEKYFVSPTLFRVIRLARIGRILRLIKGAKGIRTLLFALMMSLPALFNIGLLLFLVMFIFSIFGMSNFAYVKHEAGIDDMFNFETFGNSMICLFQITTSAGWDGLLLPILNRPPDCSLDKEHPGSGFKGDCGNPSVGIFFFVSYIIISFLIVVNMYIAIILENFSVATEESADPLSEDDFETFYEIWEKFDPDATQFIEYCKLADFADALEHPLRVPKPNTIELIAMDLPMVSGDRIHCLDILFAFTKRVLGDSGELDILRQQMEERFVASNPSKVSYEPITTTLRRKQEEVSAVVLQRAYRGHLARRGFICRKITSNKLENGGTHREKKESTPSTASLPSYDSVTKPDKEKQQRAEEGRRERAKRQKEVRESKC
T2 sequence (P04775 whole entry): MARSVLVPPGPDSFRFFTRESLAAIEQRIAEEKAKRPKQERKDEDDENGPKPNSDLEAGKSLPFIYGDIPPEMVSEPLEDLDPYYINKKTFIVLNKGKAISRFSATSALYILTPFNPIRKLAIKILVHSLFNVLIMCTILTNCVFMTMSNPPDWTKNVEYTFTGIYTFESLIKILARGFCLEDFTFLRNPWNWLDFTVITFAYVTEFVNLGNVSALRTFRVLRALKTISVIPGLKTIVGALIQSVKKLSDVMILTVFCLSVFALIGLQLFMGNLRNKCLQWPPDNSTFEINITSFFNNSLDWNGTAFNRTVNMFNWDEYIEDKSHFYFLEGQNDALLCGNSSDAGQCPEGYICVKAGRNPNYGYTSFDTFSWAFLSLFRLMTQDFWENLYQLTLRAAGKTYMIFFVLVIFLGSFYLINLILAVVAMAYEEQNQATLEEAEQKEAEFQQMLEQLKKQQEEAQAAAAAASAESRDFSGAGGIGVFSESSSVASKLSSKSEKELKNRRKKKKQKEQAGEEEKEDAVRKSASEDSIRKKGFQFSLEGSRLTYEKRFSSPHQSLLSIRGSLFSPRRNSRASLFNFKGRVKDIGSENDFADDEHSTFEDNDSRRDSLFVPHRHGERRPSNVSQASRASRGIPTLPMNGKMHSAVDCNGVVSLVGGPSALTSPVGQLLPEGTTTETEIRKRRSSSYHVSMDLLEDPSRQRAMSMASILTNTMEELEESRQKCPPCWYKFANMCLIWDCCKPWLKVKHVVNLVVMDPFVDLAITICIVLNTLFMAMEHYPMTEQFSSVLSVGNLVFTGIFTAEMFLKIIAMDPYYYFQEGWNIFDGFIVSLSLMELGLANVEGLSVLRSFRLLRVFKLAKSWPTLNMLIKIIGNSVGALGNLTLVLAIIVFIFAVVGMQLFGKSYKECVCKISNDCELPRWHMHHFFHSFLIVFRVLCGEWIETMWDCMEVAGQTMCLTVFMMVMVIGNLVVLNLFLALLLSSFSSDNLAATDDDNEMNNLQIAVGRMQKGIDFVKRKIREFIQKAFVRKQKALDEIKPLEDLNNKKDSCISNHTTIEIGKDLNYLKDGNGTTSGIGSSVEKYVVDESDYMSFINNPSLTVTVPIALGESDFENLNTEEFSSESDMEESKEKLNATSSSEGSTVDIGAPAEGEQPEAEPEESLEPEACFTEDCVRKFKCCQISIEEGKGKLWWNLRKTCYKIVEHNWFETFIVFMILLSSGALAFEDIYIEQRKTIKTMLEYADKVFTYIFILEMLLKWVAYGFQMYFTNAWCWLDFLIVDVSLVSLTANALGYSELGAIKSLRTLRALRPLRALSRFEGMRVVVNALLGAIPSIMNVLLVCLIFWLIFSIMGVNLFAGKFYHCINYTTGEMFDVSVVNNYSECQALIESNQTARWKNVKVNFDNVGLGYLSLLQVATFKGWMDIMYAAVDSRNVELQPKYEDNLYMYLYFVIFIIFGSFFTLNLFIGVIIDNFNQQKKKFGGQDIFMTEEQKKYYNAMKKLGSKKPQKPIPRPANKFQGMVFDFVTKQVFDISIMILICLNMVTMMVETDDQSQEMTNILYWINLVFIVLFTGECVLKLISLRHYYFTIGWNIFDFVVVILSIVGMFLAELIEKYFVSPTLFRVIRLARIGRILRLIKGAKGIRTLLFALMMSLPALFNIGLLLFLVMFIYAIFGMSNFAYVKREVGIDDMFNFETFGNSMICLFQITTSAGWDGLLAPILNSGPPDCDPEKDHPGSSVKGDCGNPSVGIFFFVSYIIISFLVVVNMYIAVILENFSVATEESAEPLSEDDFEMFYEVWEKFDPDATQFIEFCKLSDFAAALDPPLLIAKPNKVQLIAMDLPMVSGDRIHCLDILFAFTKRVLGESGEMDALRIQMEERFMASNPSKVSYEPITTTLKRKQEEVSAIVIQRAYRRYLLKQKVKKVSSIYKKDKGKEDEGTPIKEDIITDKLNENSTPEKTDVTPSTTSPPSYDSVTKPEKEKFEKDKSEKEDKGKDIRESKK

Row | Substance | EC50 (mNaV1.6) | relative potency on NaV1.6 (in words) (mNaV1.6; compared with RTX-III) | LD50 (mice [1]; mice) | effect on NaV1.2 current (in words) (rNaV1.2; Xenopus oocytes) | EC50 (rNaV1.2; [5]) | relative activity on NaV1.2 (in words) (rNaV1.2; compared to δ-SHTX-Hcr1f (Figure 6, Table 3)) | modulation of NaV channels (in words) [2] | phyla selectivity (in words) [2] | EC50 (BgNaV1) | relative potency on BgNaV1 (in words) (BgNaV1; compared with RTX-III) | effect on NaV1.3 current (in words) (rNaV1.3) | α-helices (in words) [3] | Unordered [3] | α-Helices αD [3] | α-Helices αR [3] | α-Helices αtot [3] | half-maximal effective concentration (EC50), NaV1.2 (rNaV1.2; [5]) | LD50 (mice [4]; ref [10]) | toxicity in mice (in words) (mice [1]; CD-1 mice) | LD50 (mice [4]; ref [8])
1 | I: TAPLTGYVDLGYCNEGWEKCASYYSPIAECCRKKK-NH2 / II: GNCKCDDEGPYV-OH (disulfide I:13-I:31, I:20-II:5, I:30-II:3) [RTX-VI] | 282 ± 7 nM | more potent inhibitor of both NaV1.6 and BgNaV1 channels than RTX-III | > 10 mg/kg | modulated another subtype of the CNS channels, NaV1.2; also recorded: enhanced current through NaV1.2 | 121 ± 19.3 nM | lower activity on the NaV1.2 subtype compared to δ-SHTX-Hcr1f | modulate insect, arachnid (BgNaV1, VdNaV1), and mammalian CNS NaV channels (NaV1.1–NaV1.3, NaV1.6) but not skeletal muscle (NaV1.4), cardiac (NaV1.5), or PNS (NaV1.8) channels; also recorded: did not affect currents of skeletal muscle NaV1.4, cardiac NaV1.5, and PNS NaV1.8 channels | not to be phyla-selective; also recorded: non-phyla-selective | 761 ± 25.6 nM | more potent inhibitor of both NaV1.6 and BgNaV1 channels than RTX-III | abolished its effect on the NaV1.3 current | practically absent | 38.3 percentage | 0.3 percentage | 0.0 percentage | 0.3 percentage | – | – | – | –
2 | H-GNCKCDDEGPYVRTAPLTGYVDLGYCNEGWEKCASYYSPIAECCRKKK-NH2 (disulfide 3-43, 5-33, 26-44) [RTX-III] | 382 ± 5.8 nM | – | – | – | – | – | modulate insect, arachnid (BgNaV1, VdNaV1), and mammalian CNS NaV channels (NaV1.1–NaV1.3, NaV1.6) but not skeletal muscle (NaV1.4), cardiac (NaV1.5), or PNS (NaV1.8) channels; also recorded: did not affect currents of skeletal muscle NaV1.4, cardiac NaV1.5, and PNS NaV1.8 channels | not to be phyla-selective; also recorded: non-phyla-selective | 978 ± 62.3 nM | – | exhibited substantial activating effects on NaV1.3; also recorded: acted similarly on NaV1.3 | practically absent | 40.1 percentage | 0.4 percentage | 0.1 percentage | 0.5 percentage | Not active | 0.0025 mg/kg | – | –
3 | ASCKCDDDGPDVRSATFTGTVDFWNCNEGWEKCTAVYTPVASCCRKKK-NH2 (disulfide 3-43, 5-33, 26-44) [δ-SHTX-Hcr1f] | 183 ± 8.2 nM | – | – | – | 79.5 ± 4.3 nM | – | – | – | 226 ± 12.3 nM | – | – | – | – | – | – | – | – | – | consistent with the previously reported data for RpII | 4.2 mg/kg
